Source: patent EP4273147A1, “SUBSTITUTED SPIROLACTAMS, SALTS THEREOF AND THEIR USE AS HERBICIDALLY ACTIVE SUBSTANCES” (Bayer Aktiengesellschaft, priority 2022, dated 2023)

Legend:
SETVI [1] = assay: Herbicidal pre-emergence action (Table A5); format: in vivo, Setaria viridis; settings: visual grading after ca. 3 weeks
Method in brief: (§1)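 Seeds of monocot and dicot weeds were sown in pots of sandy loam and covered with soil. Each pot held a double sowing: one monocotyledonous plus one dicotyledonous species.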

MATIN [2] = assay: Herbicidal pre-emergence action (Table A4); format: in vivo, Matricaria inodora; settings: visual grading after ca. 3 weeks
Method in brief: as §1

KCHSC [3] = assay: Herbicidal pre-emergence action (Table A10); format: in vivo, Kochia scoparia; settings: visual grading after ca. 3 weeks
Method in brief: as §1

ECHCG [4] = assay: Herbicidal pre-emergence action (Table A2); format: in vivo, Echinochloa crus-galli; settings: visual grading after ca. 3 weeks
Method in brief: as §1

STEME = assay: Herbicidal pre-emergence action (Table A6); format: in vivo, Stellaria media; settings: visual grading after ca. 3 weeks
Method in brief: as §1

LOLRI [5] = assay: Herbicidal pre-emergence action (Table A3); format: in vivo, Lolium rigidum; settings: visual grading after ca. 3 weeks
Method in brief: as §1

KCHSC [6] = assay: Herbicidal post-emergence action (Table B4); format: in vivo, Kochia scoparia; settings: application rate 1280 g/ha; rated visually after about 3 weeks
Experimental: (§2) Seeds of mono- and dicotyledonous weed plants were placed in plastic pots in sandy loam soil (doubly sown with in each case one species of mono- or dicotyledonous weed plants per pot), covered with soil and cultivated in a greenhouse under controlled growth conditions. 2 to 3 weeks after sowing, the test plants were treated at the one-leaf stage. […] After the test plants had been kept in the greenhouse under optimum growth conditions for about 3 weeks, the activity of the preparations was rated visually in comparison to untreated controls. For example, 100% activity = the plants have died, 0% activity = like control plants.

ALOMY [7] = assay: Herbicidal pre-emergence action (Table A9); format: in vivo, Alopecurus myosuroides; settings: application rate 1280 g/ha; visual grading after ca. 3 weeks
Method in brief: as §1

ECHCG [8] = assay: Herbicidal post-emergence action (Table B3); format: in vivo, Echinochloa crus-galli; settings: rated visually after about 3 weeks
Method in brief: (§3)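 Treated at one-leaf stage (2–3 weeks after sowing in sandy loam, greenhouse-grown). Visual efficacy rating after about 3 weeks; 0% = like controls, 100% = complete kill.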

SETVI [9] = assay: Herbicidal post-emergence action (Table B8); format: in vivo, Setaria viridis
Method in brief: as §3

VERPE [10] = assay: Herbicidal post-emergence action (Table B10); format: in vivo, Veronica persica; settings: application rate 320 g/ha
Method in brief: as §3

POAAN = assay: Herbicidal pre-emergence action (Table A7); format: in vivo, Poa annua
Method in brief: as §1

ALOMY [11] = assay: Herbicidal post-emergence action (Table B2); format: in vivo, Alopecurus myosuroides; settings: application rate 1280 g/ha; rated visually after about 3 weeks
Experimental: as §2

POLCO = assay: Herbicidal pre-emergence action, section C (Table C9); format: in vivo, Polygonum convolvulus; settings: application rate 320 g/ha; visual grading after ca. 3 weeks
VERPE [12] = assay: Herbicidal pre-emergence action, section C (Table C11); format: in vivo, Veronica persica; settings: application rate 320 g/ha; visual grading after ca. 3 weeks
VIOTR = assay: Herbicidal pre-emergence action, section C (Table C12); format: in vivo, Viola tricolor; settings: application rate 80 g/ha; visual grading after ca. 3 weeks
Excerpt: (§5) Seeds of mono- and dicotyledonous weed plants and crop plants were sown, in plastic or organic planting pots, in sandy loam and covered with soil. The compounds according to the invention, formulated in the form of wettable powders (WP) or as emulsifiable concentrates (EC), were applied to the surface of the covering soil as aqueous suspension or emulsion, with the addition of 0.5% of an additive, at an application rate of 600 1 of water/ha (converted). Following treatment, the pots were placed in a greenhouse and kept under optimum growth conditions for the test plants.

ECHCG [13] = assay: Herbicidal pre-emergence action, section C (Table C6); format: in vivo, Echinochloa crus-galli; settings: application rate 320 g/ha; visual grading after ca. 3 weeks
ZEAMX [14] = assay: Post-emergence effects on crop plants (Table F1); format: in vivo, Zea mays; settings: application rate 80 g/ha, crop plant ZEAMX
Excerpt: (§4) 2 to 3 weeks after sowing, the test plants were sprayed in the single-leaf stage.

DIGSA [15] = assay: Herbicidal pre-emergence action, section C (Table C5); format: in vivo, Digitaria sanguinalis; settings: application rate 320 g/ha; visual grading after ca. 3 weeks
ECHCG [16] = assay: Herbicidal post-emergence action, section E (Table E5); format: in vivo, Echinochloa crus-galli; settings: application rate 320 g/ha; assessed visually after ca. 3 weeks
Excerpt: as §4

ABUTH = assay: Herbicidal pre-emergence action, section C (Table C1); format: in vivo, Abutilon theophrasti; settings: application rate 320 g/ha; visual grading after ca. 3 weeks
ZEAMX [17] = assay: Pre-emergence effects on crop plants (Table D1); format: in vivo, Zea mays; settings: crop plant; application rate 320 g/ha; visual grading after ca. 3 weeks
VERPE [18] = assay: Herbicidal pre-emergence action (Table A11); format: in vivo, Veronica persica; settings: application rate 1280 g/ha; visual grading after ca. 3 weeks
Method in brief: as §1

ALOMY [19] = assay: Herbicidal pre-emergence action, section C (Table C2); format: in vivo, Alopecurus myosuroides; settings: application rate 80 g/ha; visual grading after ca. 3 weeks
TRZAS [20] = assay: Pre-emergence effects on crop plants (Table D2); format: in vivo, Triticum aestivum; settings: crop plant; application rate 80 g/ha; visual grading after ca. 3 weeks
ORYZA [21] = assay: Post-emergence effects on crop plants (Table F3); format: in vivo, Oryza sativa; settings: application rate 320 g/ha, crop plant ORYZA
Excerpt: as §4

SETVI [22] = assay: Herbicidal post-emergence action, section E (Table E8); format: in vivo, Setaria viridis; settings: application rate 320 g/ha; assessed visually after ca. 3 weeks
Excerpt: as §4

DIGSA [23] = assay: Herbicidal pre-emergence action (Table A12); format: in vivo, Digitaria sanguinalis; settings: application rate 320 g/ha; visual grading after ca. 3 weeks
Method in brief: as §1

MATIN [24] = assay: Herbicidal pre-emergence action, section C (Table C8); format: in vivo, Matricaria inodora; settings: application rate 320 g/ha; visual grading after ca. 3 weeks
Excerpt: as §5

TRZAS [25] = assay: Post-emergence effects on crop plants (Table F2); format: in vivo, Triticum aestivum; settings: application rate 320 g/ha, crop plant TRZAS
Excerpt: as §4

MATIN [26] = assay: Herbicidal post-emergence action (Table B6); format: in vivo, Matricaria inodora; settings: application rate 1280 g/ha; rated visually after about 3 weeks
Method in brief: as §3

LOLRI [27] = assay: Herbicidal pre-emergence action, section C (Table C7); format: in vivo, Lolium rigidum; settings: application rate 320 g/ha; visual grading after ca. 3 weeks
SETVI [28] = assay: Herbicidal pre-emergence action, section C (Table C10); format: in vivo, Setaria viridis; settings: application rate 320 g/ha; visual grading after ca. 3 weeks
ORYZA [29] = assay: Pre-emergence effects on crop plants (Table D3); settings: crop plant; application rate 80 g/ha; visual grading after ca. 3 weeks
Excerpt: Seeds of mono- and dicotyledonous weed plants and crop plants were sown, in plastic or organic planting pots, in sandy loam and covered with soil. The compounds according to the invention, formulated in the form of wettable powders (WP) or as emulsifiable concentrates (EC), were applied to the surface of the covering soil as aqueous suspension or emulsion, with the addition of 0.5% of an additive, at an application rate of 600 1 of water/ha (converted).
Following treatment, the pots were placed in a greenhouse and kept under optimum growth conditions for the test plants.

O=C1N(Cc2cccc(F)c2F)CCC12CCN(Cc1cccc(F)c1F)C2=O (racemic) [I-090]
pre-emergence activity against SETVI (SETVI [1]; application rate 1280 g/ha): 90%
pre-emergence activity against MATIN (MATIN [2]; application rate 1280 g/ha): 90%
pre-emergence activity against KCHSC (KCHSC [3]; application rate 1280 g/ha): 90%
pre-emergence activity against ECHCG (ECHCG [4]; application rate 1280 g/ha): 100%
pre-emergence activity against STEME (STEME; application rate 1280 g/ha): 90%
pre-emergence activity against LOLRI (LOLRI [5]; application rate 1280 g/ha): 90%
post-emergence activity against KCHSC (KCHSC [6]): 90%

O=C1N(Cc2ccccc2Cl)CCCC12CCCN(Cc1cccc(F)c1F)C2=O (racemic) [I-018]
pre-emergence activity against ALOMY (ALOMY [7]): 90%
pre-emergence activity against SETVI (SETVI [1]; application rate 320 g/ha): 90%
post-emergence activity against ECHCG (ECHCG [8]; application rate 320 g/ha): 90%
pre-emergence activity against MATIN (MATIN [2]; application rate 1280 g/ha): 90%
post-emergence activity against SETVI (SETVI [9]; application rate 320 g/ha): 90%
pre-emergence activity against ECHCG (ECHCG [4]; application rate 320 g/ha): 100%
post-emergence activity against VERPE (VERPE [10]): 90%
pre-emergence activity against POAAN (POAAN; pre-emergence, 1290 g/ha, 504 h): 100%
pre-emergence activity against LOLRI (LOLRI [5]; application rate 320 g/ha): 100%
post-emergence activity against ALOMY (ALOMY [11]): 90%

O=C1N(Cc2ccccc2)CCC12CCCN(Cc1cccc(F)c1F)C2=O (racemic) [I-028]
pre-emergence activity against POLCO (POLCO): 90%
pre-emergence activity against VERPE (VERPE [12]): 90%
pre-emergence activity against ALOMY (ALOMY [7]): 90%
pre-emergence activity against VIOTR (VIOTR): 90%
pre-emergence activity against ECHCG (ECHCG [13]): 100%
post-emergence activity against ZEAMX (ZEAMX [14]): 0%
pre-emergence activity against SETVI (SETVI [1]; application rate 320 g/ha): 100%
pre-emergence activity against DIGSA (DIGSA [15]): 100%
post-emergence activity against ECHCG (ECHCG [8]; application rate 1280 g/ha): 90%
pre-emergence activity against MATIN (MATIN [2]; application rate 320 g/ha): 90%
post-emergence activity against SETVI (SETVI [9]; application rate 1280 g/ha): 90%
post-emergence activity against ECHCG (ECHCG [16]): 80%
pre-emergence activity against KCHSC (KCHSC [3]; application rate 320 g/ha): 90%
pre-emergence activity against ECHCG (ECHCG [4]; application rate 320 g/ha): 100%
pre-emergence activity against ABUTH (ABUTH): 90%
pre-emergence activity against ZEAMX (ZEAMX [17]): 0%
pre-emergence activity against VERPE (VERPE [18]): 90%
pre-emergence activity against ALOMY (ALOMY [19]): 90%
pre-emergence activity against STEME (STEME; application rate 320 g/ha): 90%
pre-emergence activity against TRZAS (TRZAS [20]): 20%
post-emergence activity against ORYZA (ORYZA [21]): 0%
post-emergence activity against SETVI (SETVI [22]): 80%
pre-emergence activity against POAAN (POAAN; application rate 320 g/ha, visual grading after ca. 3 weeks): 100%
pre-emergence activity against DIGSA (DIGSA [23]): 90%
pre-emergence activity against MATIN (MATIN [24]): 80%
pre-emergence activity against LOLRI (LOLRI [5]; application rate 320 g/ha): 100%
post-emergence activity against TRZAS (TRZAS [25]): 0%
post-emergence activity against MATIN (MATIN [26]): 90%
pre-emergence activity against LOLRI (LOLRI [27]): 100%
pre-emergence activity against SETVI (SETVI [28]): 100%
pre-emergence activity against ORYZA (ORYZA [29]): 0%
